Experimental data published in ChEMBL document CHEMBL1201862, “PubChem BioAssay data set” (2004).
Activity calls are given as the source filed them.

Key:
[1] = molecular target: T1, Zinc finger protein mex-5 (Caenorhabditis elegans, UniProt Q9XUB2); assay: potency of MEX-5 RNA-binding blockers – biochemical, C. elegans, fluorescence polarization, dose response (AID 1960)
T1 sequence (Q9XUB2 whole entry): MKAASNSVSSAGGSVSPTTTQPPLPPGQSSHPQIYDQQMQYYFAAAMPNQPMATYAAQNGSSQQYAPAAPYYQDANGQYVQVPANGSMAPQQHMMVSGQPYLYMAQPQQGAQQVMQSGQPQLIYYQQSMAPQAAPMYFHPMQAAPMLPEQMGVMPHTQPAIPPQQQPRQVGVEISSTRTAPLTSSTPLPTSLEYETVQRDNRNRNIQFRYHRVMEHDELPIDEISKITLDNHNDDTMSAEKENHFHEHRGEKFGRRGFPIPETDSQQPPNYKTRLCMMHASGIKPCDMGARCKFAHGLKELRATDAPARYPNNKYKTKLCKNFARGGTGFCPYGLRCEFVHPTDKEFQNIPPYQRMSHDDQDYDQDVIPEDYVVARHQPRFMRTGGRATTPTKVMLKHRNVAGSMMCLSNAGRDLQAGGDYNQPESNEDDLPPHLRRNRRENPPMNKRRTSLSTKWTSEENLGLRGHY

Caspase-6 = molecular target: T2, Caspase-6 (Homo sapiens, UniProt P55212); assay: inhibition of CASP6 peptide cleavage – biochemical, VEID-R110 fluorescence, cherry-pick, dose response (AID 720632)
T2 sequence (P55212 whole entry): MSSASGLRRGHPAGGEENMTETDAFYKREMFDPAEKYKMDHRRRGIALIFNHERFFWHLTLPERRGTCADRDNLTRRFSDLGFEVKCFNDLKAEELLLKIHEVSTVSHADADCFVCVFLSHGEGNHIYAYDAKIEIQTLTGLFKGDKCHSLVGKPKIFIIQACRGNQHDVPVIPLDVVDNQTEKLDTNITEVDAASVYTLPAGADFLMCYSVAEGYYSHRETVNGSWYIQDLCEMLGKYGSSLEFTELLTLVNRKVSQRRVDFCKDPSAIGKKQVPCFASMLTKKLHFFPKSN

Vero = assay: viability of Vero cells under compound – cytotoxicity control for flavivirus capping enzyme inhibitors (AID 588742); assay type: functional; settings: Chlorocebus sabaeus
[2] = non-specific 3'UTR reporter inhibition in Clone20-Shn3RL – cell-based, Renilla luciferase, cherry-picked, counter-screen for Shn3 inhibitor project, dose response (AID 624133); assay type: functional
INS1 = assay: INS-1E survival protection against cytokine death – cell-based, luminescence, retest, dose response (AID 449756); assay type: functional; settings: Rattus norvegicus;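 further: cell death triggered by IL-1 beta plus TNF-alpha plus IFN-gamma mixture; protective hits raise ATP signal compared with cytokine alone wells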
BJ [3] = assay: cells; assay type: functional, cell-based; settings: Homo sapiens
BJ [4] = assay: growth inhibition of engineered Ras-driven BJ cells – cell-based, alamar blue fluorescence, cherrypicked samples, dose response (AID 2631); assay type: functional; settings: Homo sapiens;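 further: confirmatory dose-response assay in RAS-dependent BJ fibroblasts engineered with TERT, LT and ST, with cytotoxicity read by fluorescence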
Beta-galactosidase = Beta-galactosidase (Escherichia coli, UniProt Q8VNN2); assay type: functional
Chain of Beta-galactosidase (Q8VNN2 whole entry): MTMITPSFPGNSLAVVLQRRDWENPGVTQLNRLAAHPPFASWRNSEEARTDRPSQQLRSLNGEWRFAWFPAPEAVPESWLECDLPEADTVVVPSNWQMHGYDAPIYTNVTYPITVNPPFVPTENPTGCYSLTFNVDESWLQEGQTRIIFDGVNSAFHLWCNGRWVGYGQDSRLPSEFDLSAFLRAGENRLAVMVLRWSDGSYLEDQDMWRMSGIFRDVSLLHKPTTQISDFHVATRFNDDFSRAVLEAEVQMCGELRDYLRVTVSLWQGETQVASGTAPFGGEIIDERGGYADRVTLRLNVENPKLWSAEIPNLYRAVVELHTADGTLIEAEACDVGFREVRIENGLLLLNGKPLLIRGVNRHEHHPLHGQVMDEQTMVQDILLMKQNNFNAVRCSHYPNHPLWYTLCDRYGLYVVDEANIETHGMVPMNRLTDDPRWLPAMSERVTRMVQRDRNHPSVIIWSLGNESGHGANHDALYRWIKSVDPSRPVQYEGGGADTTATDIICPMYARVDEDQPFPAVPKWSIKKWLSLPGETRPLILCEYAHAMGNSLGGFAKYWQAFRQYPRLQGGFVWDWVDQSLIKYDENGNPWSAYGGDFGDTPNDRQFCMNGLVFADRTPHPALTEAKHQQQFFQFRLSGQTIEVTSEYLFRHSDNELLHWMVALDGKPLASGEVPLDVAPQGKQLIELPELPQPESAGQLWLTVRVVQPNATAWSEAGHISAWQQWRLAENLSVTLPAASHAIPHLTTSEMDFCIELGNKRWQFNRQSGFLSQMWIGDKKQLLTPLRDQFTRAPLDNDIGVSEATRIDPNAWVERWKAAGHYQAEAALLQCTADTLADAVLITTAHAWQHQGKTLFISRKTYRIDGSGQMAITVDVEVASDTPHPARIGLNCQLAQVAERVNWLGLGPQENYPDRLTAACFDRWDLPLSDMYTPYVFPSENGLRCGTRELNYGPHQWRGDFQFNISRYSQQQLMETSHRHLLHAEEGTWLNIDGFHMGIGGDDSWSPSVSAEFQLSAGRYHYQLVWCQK

[5] = molecular target: Kappa-type opioid receptor (Homo sapiens, UniProt P41145); assay type: functional
Chain of Kappa-type opioid receptor (P41145 whole entry, the tested form may be a part): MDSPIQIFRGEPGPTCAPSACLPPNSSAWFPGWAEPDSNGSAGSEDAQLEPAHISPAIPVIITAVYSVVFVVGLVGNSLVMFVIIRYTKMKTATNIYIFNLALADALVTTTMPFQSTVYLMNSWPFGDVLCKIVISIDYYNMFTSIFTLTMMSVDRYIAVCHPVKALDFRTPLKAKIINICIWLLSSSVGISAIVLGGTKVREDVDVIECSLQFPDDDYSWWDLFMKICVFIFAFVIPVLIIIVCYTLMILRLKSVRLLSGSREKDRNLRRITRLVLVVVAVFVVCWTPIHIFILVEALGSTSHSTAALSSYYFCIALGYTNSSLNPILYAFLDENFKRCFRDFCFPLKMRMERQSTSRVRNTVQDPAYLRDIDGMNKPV

CHO = CHO cell viability loss, potency – luminescence, cytotoxicity control for TLR9-MyD88 binding inhibitor project, dose response (AID 588339); assay type: functional, cell-based, hamster; settings: Cricetulus griseus;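 further: CHO cells stably coexpressing TLR9 and MyD88 fusions from primary screen; compound exposure lasted 48 hours before viability readout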
[6] = molecular target: T3, Probable nicotinate-nucleotide adenylyltransferase (Staphylococcus aureus (strain N315), UniProt P65502); assay type: functional, Staphylococcus aureus subsp. aureus N315;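 on IC50 Mean: confirmatory dose-response retesting of NadD inhibitor hits first found in an ultra-high-throughput screen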
T3 sequence (P65502 whole entry): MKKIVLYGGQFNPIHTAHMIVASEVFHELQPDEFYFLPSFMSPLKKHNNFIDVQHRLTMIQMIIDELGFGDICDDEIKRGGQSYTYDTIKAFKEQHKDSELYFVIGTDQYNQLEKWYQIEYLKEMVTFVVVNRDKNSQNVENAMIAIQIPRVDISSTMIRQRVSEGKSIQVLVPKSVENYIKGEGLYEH

[7] = molecular target: T3, Probable nicotinate-nucleotide adenylyltransferase; assay type: functional, Staphylococcus aureus subsp. aureus N315; settings: read-out: IC50_Mean
[8] = molecular target: T4, Dual specificity protein phosphatase 6 (Rattus norvegicus, UniProt Q64346); assay: inhibition of rat DUSP6 enzyme activity – biochemical, in vitro, primary screen (AID 425)
T4 sequence (Q64346 whole entry): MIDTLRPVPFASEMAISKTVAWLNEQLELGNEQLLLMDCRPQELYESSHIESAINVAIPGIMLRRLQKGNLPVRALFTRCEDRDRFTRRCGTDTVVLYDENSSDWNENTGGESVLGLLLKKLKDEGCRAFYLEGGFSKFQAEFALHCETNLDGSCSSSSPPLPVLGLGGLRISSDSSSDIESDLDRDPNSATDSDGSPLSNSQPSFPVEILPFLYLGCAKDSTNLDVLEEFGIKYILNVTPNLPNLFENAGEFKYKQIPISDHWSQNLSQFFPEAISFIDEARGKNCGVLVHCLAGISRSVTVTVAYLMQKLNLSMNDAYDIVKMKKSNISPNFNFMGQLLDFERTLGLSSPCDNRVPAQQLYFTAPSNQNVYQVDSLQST

## CCN(CC)CCN1C(=O)c2cccc3cc(N)cc(c23)C1=O
[1]
  EC50: 5.13 µM (inconclusive)

## O=S(=O)(O)c1cc(Cl)cc(N=Nc2ccc(O)cc2O)c1O
Caspase-6
  AC50: 2.44 µM (active)

## C=C1C(=O)O[C@@H]2C[C@@H](C)[C@@H]3C=CC(=O)[C@@]3(C)[C@@H](OC(=O)CC(=O)O[C@H]3[C@@H]4C(=C)C(=O)O[C@@H]4C[C@@H](C)[C@@H]4C=CC(=O)[C@]43C)[C@H]12
Vero
  CC50: 1.64 µM (active)
[2]
  AC50: 0.28 µM (active)
INS1
  AC50: 0.312 µM (active)
BJ [3]
  EC50: 5.4 µM (inconclusive)
BJ [4]
  EC50: 0.0525 µM (active)
Beta-galactosidase
  EC50: > 31.5 µM (inactive)
[5]
  IC50: 9.14 µM
CHO
  IC50: 0.147 µM (active)

## O=C(O)c1cccc(-n2cccc2/C=C2/NC(=O)N(c3ccc(Cl)cc3)C2=O)c1
[6]
  IC50: 11.1 µM (active)
[7]
  IC50: 27.1 µM (active)
[8]
  IC50: 3.28 µM (active)
